Assay results reported in patent US12281299B2, “Control of nitrogen fixation in rhizobia that associate with cereals” (Massachusetts Institute of Technology, priority 2019, dated 2025).

Tests used:
P. protegens Pf-5 [1] = test: Genetic part characterization for P. protegens (promoters, RBSs, terminators, inducible systems; fluorescence reporter, flow cytometry); type: cell-based, Pseudomonas protegens
Description: Construction and characterization genetic parts for P. protegens. Genetic part libraries were built on a pRO1600-ori plasmid pMR-2 using Gibson assembly (New England Biolabs, Cat # E2611). The fluorescence proteins, GFPmut3b and mRFP1 were used as reporters. The Anderson promoter library on the BioBricks Registry were utilized for the characterization of constitutive promoters (FIGS. 11A-11C). The following combinations of cognate regulators and inducible promoters were characterized. IPTG inducible LacI-Ptac, DAPG inducible PhlF-PPhl, aTc inducible TetR-PTet, 3OC6HSL inducible LuxR-PLux, arabinose inducible AraC-PBAD, cuminic acid inducible CymR-PCym, and naringenin inducible FdeR-PFde were optimized (FIGS. 15A-15C). […] RBS library for GFP was designed using the RBS library calculator at the highest-resolution mode, and the 3′ end of the 16S rRNA sequences were adjusted according to the species (3′-ACCTCCTTA-5′ for P. protegens Pf-5). Terminators for T7 RNAP were characterized by placing a terminator between two fluorescence reporters expressed from a single T7 wild-type promoter located upstream of the first fluorescence protein GFP. The expression of the two fluorescence proteins is enabled by an IPTG-inducible T7 RNAP expression system of the controller strain MR7 (FIGS. 13A-13B). All genetic parts for P. protegens Pf-5 were characterized as follows.

R. sp. IRBG74 = test: Nitrogenase assays (Rhizobia strains), acetylene reduction; type: cell-based, Rhizobium sp.; settings: DAPG-inducible T7 RNAP driving v3.2 refactored pathway in R. sp. IRBG74
Procedure: Nitrogenase assays (Rhizobia strains). […] 5 μl of overnight cultures was diluted into 500 μl of UMS medium with 30 mM succinate, 10 mM sucrose, and 10 mM NH4Cl and appropriate antibiotics in 96-deepwell and incubated for 24 h at 30° C., 900 rpm in a Multitron incubator. Cultures were diluted to an OD600 of 0.4 into 2 mL of UMS medium plus 30 mM succinate and 10 mM sucrose supplemented with appropriate antibiotics, 1.43 mM serine and an inducer (if necessary) in 10 mL glass vials with PTFE-silicone septa screw caps. Headspace in the vials was replaced with 99% argon and 1% oxygen gas using a vacuum manifold. Acetylene was injected to 10% (vol/vol) into each culture vial to begin the reaction. […]
Ethylene quantification. Ethylene production was analyzed by gas chromatography using an Agilent 7890A GC system (Agilent Technologies, Inc., CA USA) equipped with a PAL headspace autosampler and flame ionization detector as follows. […] Acetylene and ethylene were detected at 3.0 min and 3.7 min after injection, respectively. Ethylene production was quantified by integrating the 3.7 min peak using Agilent GC/MSD ChemStation Software.
The bacteria were grown in appropriate media, including antibiotics, and then evaluated for nitrogenase activity using an acetylene reduction assay (see Methods and Materials Section). […]

A. caulinodans ORS571 = type: cell-based, Azorhizobium caulinodans; settings: sensor controlling NifA(L94Q/D95Q)/RpoN expression in A. caulinodans
Procedure: Nitrogenase assays (A. caulinodans and P. stutzeri). Cultures were initiated by inoculating a single colony into 0.2 mL of TY medium supplemented with appropriate antibiotics in 96-deepwell plates and grown overnight at 37° C. and 30° C. for A. caulinodans and P. stutzeri, respectively, 900 rpm in a Multitron incubator. 5 μl of overnight cultures was diluted into 500 μl of UMS medium with 30 mM lactate and 10 mM NH4Cl and appropriate antibiotics in 96-deepwell and incubated for 24 h at 37° C. and 30° C. for A. caulinodans and P. stutzeri, respectively, 900 rpm in a Multitron incubator. Cultures were diluted to an OD600 of 0.4 into 2 mL of UMS medium plus 30 mM lactate supplemented with appropriate antibiotics and an inducer (if necessary) in 10 mL glass vials with PTFE-silicone septa screw caps. Headspace in the vials was replaced with 99% argon plus 1% oxygen gas using a vacuum manifold. Acetylene was injected to 10% (vol/vol) into each culture vial to begin the reaction. The acetylene reduction was carried out for 20 h at 30° C. with shaking at 250 rpm, followed by quenching via the addition of 0.5 mL of 4 M NaOH to each vial.
Ethylene quantification. Ethylene production was analyzed by gas chromatography using an Agilent 7890A GC system (Agilent Technologies, Inc., CA USA) equipped with a PAL headspace autosampler and flame ionization detector as follows. An aliquot of 0.5 mL headspace preincubated to 35° C. for 30 s was injected and separated for 4 min on a GS-CarbonPLOT column (0.32 mm×30 m, 3 microns; Agilent) at 60° C. and a He flow rate of 1.8 mL/min. Detection occurred in a FID heated to 300° C. with a gas flow of 35 mL/min H2 and 400 mL/min air. Acetylene and ethylene were detected at 3.0 min and 3.7 min after injection, respectively. Ethylene production was quantified by integrating the 3.7 min peak using Agilent GC/MSD ChemStation Software.

nifH promoter = test: nifH expression analysis (PnifH-sfgfp, flow cytometry), A. caulinodans; type: cell-based, Azorhizobium caulinodans; settings: nifA and rpoN under IPTG control, condition used for nitrogen fixation
Procedure: Flow cytometry. Cultures with fluorescence proteins were analyzed by flow cytometry using a BD Biosciences LSRII Forterssa analyzer with a 488 nm laser and 510/20-nm band pass filter for GFP and a 561 nm laser and 610/20 nm band pass filter for mCherry and mRFP1. Cells were diluted into 96-well plates containing phosphate buffered saline solution (PBS) supplemented with 2 mg/mL kanamycin after incubation. Cells were collected over 20,000 events which were gated using forward and side scatter to remove background events using FlowJo (TreeStar Inc., Ashland, Oreg.). The median fluorescence from cytometry histograms was calculated for all samples. The median autofluorescence was subtracted from the median fluorescence and reported as the fluorescence value in arbitrary unit (au).
nifH expression analysis. Complementation of NifA was tested using plasmid pMR-128 to 130 that contains the sfgfp fused to the nifH promoter in the A. caulinodans ΔnifA mutant. The inducible NifA/RpoN expression was provided by the plasmid pMR-121 into which sfgfp driven by the nifH promoter was added to analyze MN promoter activity, yielding pMR-131 (FIG. 29). […] Each of the plasmids was mobilized into the A. caulinodans ΔnifA mutant, which was grown following the same protocol as used for nitrogenase activity (described herein). […]

P. protegens Pf-5 [2] = test: Characterization of genomically integrated controllers (T7 promoter GFP reporter), P. protegens Pf-5; type: cell-based, Pseudomonas protegens; settings: P. protegens Pf-5 controller strain MR7, reporter plasmid pMR-80
Description: Genomic integration and characterization of controllers. The mini-Tn7 insertion system was used to introduce a controller into the genome of P. protegens Pf-5. The IPTG-inducible T7 RNAP expression system and a tetracycline resistant marker tetA was placed between two Tn7 ends (Tn7L and Tn7R). The controller plasmid pMR-85 was introduced into P. protegens Pf-5 by double transformation with pTNS3 encoding the TnsABCD transposase. A genomically-integrated controller located 25 bp downstream of the stop codon of glmS was confirmed by PCR and sequencing. A markerless insertion method using homologous recombination was employed in R. sp. IRBG74. A controller encoding inducible T7 RNAP system flanked by two homology fragments that enables the replacement of recA was cloned into a suicide plasmid. These controller plasmids (IPTG-inducible, pMR82-84; DAPG-inducible, pMR85) in E. coli was mobilized into R. sp. IRBG74 MR18 (AhsdR. Anif) by triparental mating, generating the controller strains (MR19, 20, 21 and 22, respectively). The controller integration in the genome was confirmed by gentamicin sensitivity and diagnostic PCR. All controllers were characterized in a manner identical to that described in genetic part characterization.

[3] = tested on: E. coli Marionette MG1655; settings: 1 mM choline-Cl
Procedure: The reporter plasmid pMR-120 in which gfpmut3b is fused to the PT7(P2) promoter (FIGS. 28A-28C) was co-transformed to analyze the response functions of each of the 12 T7 RNAP controller plasmids. To characterize controllers, single colonies were inoculated into 1 ml LB supplemented with antibiotics in 96-deepwell plates (USA Scientific, Cat #18962110) and grown overnight at 30° C., 900 rpm in a Multitron incubator (INFORS HT, MD). 0.5 μl of overnight cultures was diluted into 200 μl of LB with antibiotics and appropriate inducers in 96-well plates (Thermo Scientific, Cat #12565215) and incubated for 6 h at 30° C., 1,000 rpm in an ELMI DTS-4 shaker (ELMI, CA). After growth, 4 μl of culture sample was diluted into 150 μl PBS with 2 mg/mL kanamycin for flow cytometry analysis.
Flow cytometry. Cultures with fluorescence proteins were analyzed by flow cytometry using a BD Biosciences LSRII Forterssa analyzer with a 488 nm laser and 510/20-nm band pass filter for GFP and a 561 nm laser and 610/20 nm band pass filter for mCherry and mRFP1. […] The median fluorescence from cytometry histograms was calculated for all samples. The median autofluorescence was subtracted from the median fluorescence and reported as the fluorescence value in arbitrary unit (au).

CC(=O)c1c(O)cc(O)c(C(C)=O)c1O [DAPG, 2,4-Diacetylphloroglucinol, reference compound]
function of inducible system (P. protegens Pf-5 [1]; P. protegens Pf-5, pRO1600 plasmid): functional | induction of nitrogenase activity (R. sp. IRBG74): 9 fold

O=C([O-])c1ccccc1O.[Na+] [salicylic acid, Salicylic acid sodium salt]
dynamic range of nitrogenase activity (A. caulinodans ORS571): 1000 fold

CC(C)S[C@@H]1O[C@H](CO)[C@H](O)[C@H](O)[C@H]1O [IPTG, Isopropyl-beta-D-thiogalactoside]
expression range of IPTG-inducible system (P. protegens Pf-5 [1]; Ptac promoter and Lad (Q18M/A47V/F161Y) protein, 1 mM IPTG, P. protegens Pf-5): 110 fold | dynamic range of response function from the nifH promoter (nifH promoter): 45 fold | activation of GFP expression by the T7 promoter (P. protegens Pf-5 [2]): 96 fold

C[N+](C)(C)CCO.[Cl-] [choline-Cl, Choline chloride]
inducibility of the T7 promoter by controller plasmid [3]: not inducible

N=C(N)NCCCC(NC(CCC(=O)O)C(=O)O)C(=O)O (stereo not drawn) [nopaline, Nopaline]
dynamic range of nitrogenase activity (A. caulinodans ORS571): 412 fold

CC(NC(CCCNC(=N)N)C(=O)O)C(=O)O (stereo not drawn) [octopine, Octopine]
nitrogenase activity higher than the wild-type (A. caulinodans ORS571): 40%
